Assay results reported in patent publication US12428626B2 (priority 2018, dated 2025).
Residues, ends and D or L forms follow the SMILES beside them. *: point of attachment. Cbz = O=C(OCc1ccccc1)*

System: WT MYXV
Type: cell-based, myxoma virus

With Actinomycin D the “elevated luciferase activity resulting from infecting SAMD9-null cells” value was “did not eliminate the elevated luciferase activity” and the “overall luciferase activity compared with untreated corresponding infection” value was “did reduce the overall luciferase activity”.
With `CC(C)C[C@@H](C=O)NC(=O)[C@H](CC(C)C)NC(=O)[C@H](CC(C)C)NC(=O)OCc1ccccc1` [MG132, Z-Leu-Leu-Leu-al] (Cbz-Leu-Leu-Leu-aldehyde) the “improved infection in SAMD9-null cells” value was “did not affect improved infection”.
In the case of “cytosine beta-D-arabinofuranoside [Cytosine arabinoside]”, the “luciferase activity emitted from infection in both cell lines” value is reported as “did not affect luciferase activity”.
